Our source for the mutagenic call values is PubChem BioAssay AID1259407 (Chemical Carcinogenesis Research Information System (CCRIS), 2018).

The source made the active and inactive calls. The rule behind the calls is not given here.

For the series, the system named is CCRIS mutagenicity, Ames/micronucleus/aberration tests. The series is described as follows: CCRIS mutagenicity studies.
Where [1] appears, read: Test System: AMES SALMONELLA TYPHIMURIUM, Strain/Indicator: TA97, Metabolic Activation: NONE, Method: PREINCUBATION
Setting [2] is: Test System: AMES SALMONELLA TYPHIMURIUM, Strain/Indicator: TA98, Metabolic Activation: NONE, Method: STANDARD PLATE.
Setting [3] is: Test System: AMES SALMONELLA TYPHIMURIUM, Strain/Indicator: TA100, Metabolic Activation: NONE, Method: STANDARD PLATE.
[4] abbreviates: Test System: AMES SALMONELLA TYPHIMURIUM, Strain/Indicator: TA98, Metabolic Activation: NONE, Method: PREINCUBATION
Setting [5] is: Test System: AMES SALMONELLA TYPHIMURIUM, Strain/Indicator: TA100, Metabolic Activation: NONE, Method: PREINCUBATION
Setting [6] is: Test System: AMES SALMONELLA TYPHIMURIUM, Strain/Indicator: TA1535, Metabolic Activation: NONE, Method: PREINCUBATION

In the case of `CCCCCC(=O)OCC`, the mutagenic call is, setting by setting: under setting [1], “inactive; negative”; (Test System: AMES SALMONELLA TYPHIMURIUM, Strain/Indicator: TA97, Metabolic Activation: RAT, LIVER, S-9, AROCLOR 1254, Method: PREINCUBATION) “inactive; negative”; (Test System: AMES SALMONELLA TYPHIMURIUM, Strain/Indicator: TA102, Metabolic Activation: NONE, Method: PREINCUBATION) “inactive; negative”; (Test System: AMES SALMONELLA TYPHIMURIUM, Strain/Indicator: TA102, Metabolic Activation: RAT, LIVER, S-9, AROCLOR 1254, Method: PREINCUBATION) “inactive; negative”.
Turning to `C=CCN(CC=C)CCN(CC=C)CC=C.[Cl-].[Cl-].[Pd+2]`, the mutagenic call (Test System: AMES SALMONELLA TYPHIMURIUM, Strain/Indicator: TA92, Metabolic Activation: NONE, Method: STANDARD PLATE) is “inactive; negative”; the mutagenic call under setting [2] is “inactive; negative”; the mutagenic call under setting [3] is “inactive; negative”; the mutagenic call (Test System: AMES SALMONELLA TYPHIMURIUM, Strain/Indicator: TA2410, Metabolic Activation: NONE, Method: STANDARD PLATE) is “inactive; negative”; the mutagenic call (Test System: E. COLI, Strain/Indicator: TM6, Metabolic Activation: NONE, Method: STANDARD PLATE) was “active; positive”; the mutagenic call (Test System: E. COLI, Strain/Indicator: TM9, Metabolic Activation: NONE, Method: STANDARD PLATE) was “active; positive”.
Take `CN=C1C=CC(=C(c2ccc(N(C)C)cc2)c2ccc(N(C)C)cc2)C=C1`: the mutagenic call by setting is: (Test System: AMES SALMONELLA TYPHIMURIUM, Strain/Indicator: TA97, Metabolic Activation: NONE, Method: STANDARD PLATE) “inactive; negative”; (Test System: AMES SALMONELLA TYPHIMURIUM, Strain/Indicator: TA97, Metabolic Activation: RAT, LIVER, S-9, AROCLOR 1254, Method: STANDARD PLATE) “inactive; negative”; under setting [2], “inactive; negative”; (Test System: AMES SALMONELLA TYPHIMURIUM, Strain/Indicator: TA98, Metabolic Activation: RAT, LIVER, S-9, AROCLOR 1254, Method: STANDARD PLATE) “inactive; negative”; under setting [3], “inactive; negative”; (Test System: AMES SALMONELLA TYPHIMURIUM, Strain/Indicator: TA100, Metabolic Activation: RAT, LIVER, S-9, AROCLOR 1254, Method: STANDARD PLATE) “inactive; negative”. Moreover, the mutagenic call by setting is: (Test System: AMES SALMONELLA TYPHIMURIUM, Strain/Indicator: TA104, Metabolic Activation: NONE, Method: STANDARD PLATE) “inactive; negative”; (Test System: AMES SALMONELLA TYPHIMURIUM, Strain/Indicator: TA104, Metabolic Activation: RAT, LIVER, S-9, AROCLOR 1254, Method: STANDARD PLATE) “inactive; negative”.
Consider `Oc1ccc(Cc2ccccc2O)cc1`, for which the mutagenic call runs as follows: under setting [4], “inactive; negative”; (Test System: AMES SALMONELLA TYPHIMURIUM, Strain/Indicator: TA98, Metabolic Activation: RAT LIVER S-9, PHENOBARBITAL AND BETA-NAPHTHOFLAVONE, Method: PREINCUBATION) “inactive; negative”; under setting [5], “inactive; negative”; (Test System: AMES SALMONELLA TYPHIMURIUM, Strain/Indicator: TA100, Metabolic Activation: RAT LIVER S-9, PHENOBARBITAL AND BETA-NAPHTHOFLAVONE, Method: PREINCUBATION) “inactive; negative”; under setting [6], “inactive; negative”; (Test System: AMES SALMONELLA TYPHIMURIUM, Strain/Indicator: TA1535, Metabolic Activation: RAT LIVER S-9, PHENOBARBITAL AND BETA-NAPHTHOFLAVONE, Method: PREINCUBATION) “inactive; negative”. The mutagenic call is, setting by setting: (Test System: AMES SALMONELLA TYPHIMURIUM, Strain/Indicator: TA1537, Metabolic Activation: NONE, Method: PREINCUBATION) “inactive; negative”; (Test System: AMES SALMONELLA TYPHIMURIUM, Strain/Indicator: TA1537, Metabolic Activation: RAT LIVER S-9, PHENOBARBITAL AND BETA-NAPHTHOFLAVONE, Method: PREINCUBATION) “inactive; negative”; (Test System: E.COLI, Strain/Indicator: WP2UVRA/PKM101, Metabolic Activation: NONE, Method: PREINCUBATION) “inactive; negative”; (Test System: E.COLI, Strain/Indicator: WP2UVRA/PKM101, Metabolic Activation: RAT LIVER S-9, PHENOBARBITAL AND BETA-NAPHTHOFLAVONE, Method: PREINCUBATION) “inactive; negative”.
As to `COC1=CC(=O)c2c(nc(C)c3c4c([nH]c23)CCCC4)C1=O`, the mutagenic call reads like this: (Test System: AMES SALMONELLA TYPHIMURIUM, Strain/Indicator: TA97A, Metabolic Activation: NONE, Method: STANDARD PLATE) “inactive; negative”; (Test System: AMES SALMONELLA TYPHIMURIUM, Strain/Indicator: TA97A, Metabolic Activation: RAT LIVER S-9, AROCLOR 1254, Method: STANDARD PLATE) “inactive; negative”; under setting [2], “active; positive”; (Test System: AMES SALMONELLA TYPHIMURIUM, Strain/Indicator: TA98, Metabolic Activation: RAT LIVER S-9, AROCLOR 1254, Method: STANDARD PLATE) “active; positive”; under setting [3], “inactive; negative”; (Test System: AMES SALMONELLA TYPHIMURIUM, Strain/Indicator: TA100, Metabolic Activation: RAT LIVER S-9, AROCLOR 1254, Method: STANDARD PLATE) “inactive; negative”. The mutagenic call by setting is: (Test System: AMES SALMONELLA TYPHIMURIUM, Strain/Indicator: TA102, Metabolic Activation: NONE, Method: STANDARD PLATE) “inactive; negative”; (Test System: AMES SALMONELLA TYPHIMURIUM, Strain/Indicator: TA102, Metabolic Activation: RAT LIVER S-9, AROCLOR 1254, Method: STANDARD PLATE) “inactive; negative”.
As for `N#CCCC#N`, the mutagenic call runs as follows: (Test System: AMES SALMONELLA TYPHIMURIUM, Strain/Indicator: TA97, Metabolic Activation: HAMSTER, LIVER, S-9, AROCLOR 1254 (10 OR 30%), Method: PREINCUBATION) “inactive; negative”; under setting [1], “inactive; negative”; (Test System: AMES SALMONELLA TYPHIMURIUM, Strain/Indicator: TA97, Metabolic Activation: RAT, LIVER, S-9, AROCLOR 1254 (10 OR 30%), Method: PREINCUBATION) “inactive; negative”; (Test System: AMES SALMONELLA TYPHIMURIUM, Strain/Indicator: TA98, Metabolic Activation: HAMSTER, LIVER, S-9, AROCLOR 1254 (10 OR 30%), Method: PREINCUBATION) “inactive; negative”; under setting [4], “inactive; negative”; (Test System: AMES SALMONELLA TYPHIMURIUM, Strain/Indicator: TA98, Metabolic Activation: RAT, LIVER, S-9, AROCLOR 1254 (10 OR 30%), Method: PREINCUBATION) “inactive; negative”. In addition, the mutagenic call runs as follows: (Test System: AMES SALMONELLA TYPHIMURIUM, Strain/Indicator: TA100, Metabolic Activation: HAMSTER, LIVER, S-9, AROCLOR 1254 (10 OR 30%), Method: PREINCUBATION) “inactive; negative”; under setting [5], “inactive; negative”; (Test System: AMES SALMONELLA TYPHIMURIUM, Strain/Indicator: TA100, Metabolic Activation: RAT, LIVER, S-9, AROCLOR 1254 (10 OR 30%), Method: PREINCUBATION) “inactive; negative”; (Test System: AMES SALMONELLA TYPHIMURIUM, Strain/Indicator: TA1535, Metabolic Activation: HAMSTER, LIVER, S-9, AROCLOR 1254 (10 OR 30%), Method: PREINCUBATION) “inactive; negative”; under setting [6], “inactive; negative”; (Test System: AMES SALMONELLA TYPHIMURIUM, Strain/Indicator: TA1535, Metabolic Activation: RAT, LIVER, S-9, AROCLOR 1254 (10 OR 30%), Method: PREINCUBATION) “inactive; negative”.
`Cc1cc(C)c2c3c(cc4ccccc42)-c2ccccc2-c13`: the mutagenic call (Test System: AMES SALMONELLA TYPHIMURIUM, Strain/Indicator: TA100, Metabolic Activation: RAT, LIVER, S-9, AROCLOR 1254) is “active; positive”.
Regarding `Cc1cccc(NO)c1C`, the mutagenic call is, setting by setting: under setting [5], “active; positive”; (Test System: AMES SALMONELLA TYPHIMURIUM, Strain/Indicator: TA100, Metabolic Activation: RAT, LIVER, S-9, PCB, Method: PREINCUBATION) “active; positive”.
